According to US12497386B2, “Estrogen receptor-modulating compounds” (RADIUS PHARMACEUTICALS, INC., priority 2018, dated 2025):
pIC50: −log10 of the molar value.

How the values were obtained:
[1] = tested on: MCF-7 cells; experiment: MCF-7 Proliferation Inhibition Assay; format: cell-based, human; details: Homo sapiens, MCF7, 168 h, 10 pM dose of E2, 7 days incubation, CellTiterGlo viability
Experimental: Proliferation Assay in MCF-7 and T47D Cells
MCF-7 and T47D cells were stripped for 3 days in phenol red-free RPMI1640 media containing 10% charcoal-stripped fetal bovine serum (CS-FBS) and 1% Penicillin/streptomycin (P/S). Cells (volume of 90 μl/well) were seeded in 96 well plates at a density of 2500 cells/well for MCF-7 cells and 1500 cells/well for T47D cells. On the following day, plates were treated with the test compounds (10× concentration in media, volume of 10 μl/well added) both in the absence and in the presence of two doses of E2 (10 pM and 1 nM). The cells were incubated with test compounds for 7 days. The viability of the cells was assessed using CellTiterGlo (Promega, Cat #G7573) according to the manufacturer's instructions. Growth inhibition curves and IC50 values were calculated using the GraphPadPrism 6.0 software. Data values shown in Table 1 were obtained using the 10 pM dose of E2.

[2] = tested on: E2-induced increase in uterine weight in immature rats; experiment: Immature Rat Uterine Assay; format: in vivo, Sprague-Dawley rat; details: oral dose of 3 mg/kg in combination with E2 (0.01 mg/kg), once daily for three consecutive days
Experimental: Immature Rat Uterine Assay
Sprague-Dawley rat pups were weaned at 19 days of age, randomized into groups (n=6), and administered vehicle (aqueous 20% HPBCD, 10% PEG400 in H2O), E2 (0.01 mg/kg), test compounds (0.1 mg/kg-3 mg/kg) in combination with E2 (0.01 mg/kg), either by subcutaneous injection or by oral gavage, once daily for three consecutive days. Twenty-four hours after the final dose, all animals were killed by carbon dioxide inhalation. Body weights and wet uterine weights were recorded for each animal. GraphPadPrism 6.0 software was used to analyze data.

Row | SMILES | pIC50 [1] | wet uterine weight [2]
1 | Cc1ccccc1-c1c(F)c2c3cn[nH]c3ccc2n1Cc1ccc(CCNCCF)cc1 [Compound D-101, 2-Fluoro-N-(4-((8-fluoro-7-(o-tolyl)pyrrolo[3,2-e]indazol-6(3H)-yl)methyl)phenethyl)ethan-1-amine] | > 9.00 | 
2 | Cc1ccccc1-c1c(F)c2c3cn[nH]c3ccc2n1Cc1ccc(CCNCCCF)cc1 [Compound D-102, 3-Fluoro-N-(4-((8-fluoro-7-(o-tolyl)pyrrolo[3,2-e]indazol-6(3H)-yl)methyl)phenethyl)propan-1-amine] | > 9.00 | suppressed wet uterine weight to baseline
3 | COc1ccc(-c2c(F)c3cc(O)ccc3n2Cc2ccc(CCNCCF)cc2)c(C)c1 [Compound D-103, 3-Fluoro-1-(4-(2-((2-fluoroethyl)amino)ethyl)benzyl)-2-(4-methoxy-2-methylphenyl)-1H-indol-5-ol] | > 9.00 | 
4 | COc1ccc(-c2c(F)c3cc(O)ccc3n2Cc2ccc(CCNCCCF)cc2)c(C)c1 [Compound D-104, 3-Fluoro-1-(4-(2-((3-fluoropropyl)amino)ethyl)benzyl)-2-(4-methoxy-2-methylphenyl)-1H-indol-5-ol] | > 9.00 | 

Now from value to compound, other results behind:

Row | pIC50 [1] | SMILES | wet uterine weight [2]
5 | > 9.00 | CCNCCc1ccc([C@@H]2c3ccc(O)cc3CC[C@@H]2c2ccccc2)cc1 [LA-18, (5R,6S)-5-(4-(2-(Ethylamino)ethyl)phenyl)-6-phenyl-5,6,7,8-tetrahydronaphthalen-2-ol] | 
6 | > 9.00 | Oc1ccc2c(c1)CC[C@H](c1ccccc1)[C@@H]2c1ccc(CCNCC2CC2)cc1 [LA-19, (5R,6S)-5-(4-(2-((Cyclopropylmethyl)amino)ethyl)phenyl)-6-phenyl-5,6,7,8-tetrahydronaphthalen-2-ol] | 
7 | > 9.00 | CCNCCc1ccc([C@@H]2c3ccc(O)cc3CC[C@@H]2c2ccccc2C)cc1 [LA-21, (5R,6S)-5-(4-(2-(Ethylamino)ethyl)phenyl)-6-(o-tolyl)-5,6,7,8-tetrahydronaphthalen-2-ol] | 
8 | > 9.00 | Cc1ccccc1[C@H]1CCc2cc(O)ccc2[C@H]1c1ccc(CCNCC2CC2)cc1 [LA-22, (5R,6S)-5-(4-(2-((cyclopropylmethyl)amino)ethyl)phenyl)-6-(o-tolyl)-5,6,7,8-tetrahydronaphthalen-2-ol] | 
9 | > 9.00 | CCNCCc1ccc(C2c3ccc(O)cc3CCC2c2ccc(C(C)C)cc2)cc1 (stereo not drawn) [LA-31, 5-(4-(2-(Ethylamino)ethyl)phenyl)-6-(4-isopropylphenyl)-5,6,7,8-tetrahydronaphthalen-2-ol] | 
10 | > 9.00 | CCCNCCc1ccc(C2c3ccc(O)cc3CCC2c2ccc(C(C)C)cc2)cc1 (stereo not drawn) [LA-32, 6-(4-Isopropylphenyl)-5-(4-(2-(propylamino)ethyl)phenyl)-5,6,7,8-tetrahydronaphthalen-2-ol] | 
11 | > 9.00 | CC(C)c1ccc(C2CCc3cc(O)ccc3C2c2ccc(CCNCC3CC3)cc2)cc1 (stereo not drawn) [LA-33, 5-(4-(2-((Cyclopropylmethyl)amino)ethyl)phenyl)-6-(4-isopropylphenyl)-5,6,7,8-tetrahydronaphthalen-2-ol] | 
